Measured values from ChEMBL document CHEMBL1201862, “PubChem BioAssay data set” (2004).
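Each compound was tested at five concentrations against cells in 96-well plates for 48 hours. The concentration for 50% growth inhibition is given as GI50.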 The source made the active and inactive calls. No stated cut-off is given here; in the data, active = GI50 up to about 1.1 µM and inactive = higher.

What was measured:
Test in all cases: DTP human tumour cell line panel, 48 h
[1] = test system: COLO 205
[2] = test system: PC-3
[3] = test system: EKVX
[4] = test system: K562
[5] = test system: A549
[6] = test system: NCI-H23
[7] = test system: 786-0
[8] = test system: HT-29
[9] = test system: HCT-15
[10] = test system: A498
[11] = test system: CAKI-1
[12] = test system: SF-268
[13] = test system: HOP-62
[14] = test system: NCI-H460
[15] = test system: SF-539
[16] = test system: SR
[17] = test system: OVCAR-5
[18] = test system: SN12C
[19] = test system: MDA-N
[20] = test system: SNB-19
[21] = test system: ACHN
[22] = test system: OVCAR-4
[23] = test system: SF-295
[24] = test system: OVCAR-8
[25] = test system: SNB-75
[26] = test system: UO-31
[27] = test system: Hs-578T
[28] = test system: NCI-H226
[29] = test system: SW-620
[30] = test system: NCI-H522
[31] = test system: SK-MEL-5
[32] = test system: MCF7
[33] = test system: UACC-62
[34] = test system: BT-549
[35] = test system: CCRF-CEM
[36] = test system: TK-10
[37] = test system: HL-60
[38] = test system: KM12
[39] = test system: OVCAR-3
[40] = test system: M14
[41] = test system: Malme-3M
[42] = test system: MDA-MB-231
[43] = test system: SK-MEL-28
[44] = test system: MDA-MB-435
[45] = test system: SK-OV-3
[46] = test system: U-251
[47] = test system: HOP-92
[48] = test system: HCC 2998
[49] = test system: HCT-116
[50] = test system: T47D
[51] = test system: UACC-257
[52] = test system: LOX IMVI
[53] = test system: DU-145
[54] = test system: RXF 393
[55] = test system: MOLT-4
[56] = test system: NCI/ADR-RES
[57] = test system: SK-MEL-2
[58] = test system: IGROV-1
[59] = test system: RPMI-8226

With `O=C1CS(=O)(=O)C(c2cccc(Oc3ccccc3)c2)N1c1ccccc1` (stereo not given) the GI50 [1] was 20 µM (inactive), the GI50 [2] was 19.1 µM (inactive) and the GI50 [3] was 16.4 µM (inactive). For the same molecule, the GI50 [4] was 14.4 µM (inactive), the GI50 [5] was 35.1 µM (inactive) and the GI50 [6] was 25.1 µM (inactive). For the same molecule, the GI50 [7] was 17.8 µM (inactive), the GI50 [8] was 26.5 µM (inactive) and the GI50 [9] was 22 µM. The GI50 [10] was 17.9 µM (inactive), the GI50 [11] was 20.5 µM (inactive) and the GI50 [12] was 23.7 µM (inactive). The GI50 [13] was 36.7 µM (inactive), the GI50 [14] was 18.7 µM (inactive) and the GI50 [15] was 21.3 µM (inactive). For the same molecule, the GI50 [16] was 19.9 µM (inactive), the GI50 [17] was 31.6 µM (inactive) and the GI50 [18] was 19.4 µM (inactive). The GI50 [19] was 17.9 µM (inactive), the GI50 [20] was 43.3 µM (inactive) and the GI50 [21] was 23.7 µM (inactive). For the same molecule, the GI50 [22] was 26.1 µM (inactive), the GI50 [23] was 30.5 µM (inactive) and the GI50 [24] was 27 µM (inactive). For the same molecule, the GI50 [25] was 34.1 µM (inactive), the GI50 [26] was 29.9 µM (inactive) and the GI50 [27] was 28.4 µM (inactive). The GI50 [28] was 21.4 µM (inactive), the GI50 [29] was 31.5 µM (inactive) and the GI50 [30] was 18.9 µM (inactive). The GI50 [31] was 14.9 µM (inactive), the GI50 [32] was 14.3 µM (inactive) and the GI50 [33] was 12.4 µM (inactive). For the same molecule, the GI50 [34] was 20.1 µM (inactive), the GI50 [35] was 34.8 µM (inactive) and the GI50 [36] was 26.6 µM (inactive). The GI50 [37] was 21.1 µM (inactive), the GI50 [38] was 25.8 µM (inactive) and the GI50 [39] was 20.7 µM (inactive). The GI50 [40] was 18.7 µM (inactive), the GI50 [41] was 20.5 µM (inactive) and the GI50 [42] was 19.9 µM (inactive). For the same molecule, the GI50 [43] was 26.2 µM (inactive), the GI50 [44] was 27.4 µM (inactive) and the GI50 [45] was 35.2 µM (inactive). The GI50 [46] was 16.6 µM (inactive), the GI50 [47] was 14.6 µM (inactive) and the GI50 [48] was 16.9 µM (inactive). The GI50 [49] was 16.3 µM (inactive), the GI50 [50] was 15.3 µM (inactive) and the GI50 [51] was 18.6 µM (inactive). For the same molecule, the GI50 [52] was 16.5 µM (inactive), the GI50 [53] was 48 µM (inactive) and the GI50 [54] was 19.3 µM (inactive). The GI50 [55] was 20.4 µM (inactive), the GI50 [56] was 22 µM (inactive) and the GI50 [57] was 16.1 µM (inactive).
For `CC(C)OP(=O)(CCCCCCCCC/C=C/c1ccc2c(c1)OCCOCCOCCOCCO2)OC(C)C`, the GI50 [1] was 1.99 µM (inactive), the GI50 [2] was 2.84 µM (inactive) and the GI50 [3] was 3.79 µM (inactive). The GI50 [4] was 6.37 µM (inactive), the GI50 [5] was 3.49 µM (inactive) and the GI50 [6] was 2.85 µM (inactive). The GI50 [7] was 3.78 µM (inactive), the GI50 [8] was 3.05 µM (inactive) and the GI50 [9] was 2.46 µM. For the same molecule, the GI50 [11] was 3.51 µM (inactive), the GI50 [12] was 3.8 µM (inactive) and the GI50 [13] was 2.42 µM (inactive). The GI50 [14] was 2.61 µM (inactive), the GI50 [15] was 2.62 µM (inactive) and the GI50 [58] was 4.46 µM (inactive). The GI50 [16] was 4.22 µM (inactive), the GI50 [17] was 3.42 µM (inactive) and the GI50 [18] was 3.36 µM (inactive). The GI50 [19] was 3.4 µM (inactive), the GI50 [20] was 3.41 µM (inactive) and the GI50 [21] was 3.48 µM (inactive). The GI50 [22] was 4.8 µM (inactive), the GI50 [23] was 3.08 µM (inactive) and the GI50 [59] was 1.41 µM (inactive). For the same molecule, the GI50 [24] was 3.15 µM (inactive), the GI50 [25] was 3.01 µM (inactive) and the GI50 [26] was 2.72 µM (inactive). For the same molecule, the GI50 [27] was 2.45 µM (inactive), the GI50 [28] was 3.37 µM (inactive) and the GI50 [29] was 3.82 µM (inactive). The GI50 [30] was 2.76 µM (inactive), the GI50 [31] was 2.74 µM (inactive) and the GI50 [32] was 3.23 µM (inactive). For the same molecule, the GI50 [33] was 3.79 µM (inactive), the GI50 [34] was 3.03 µM (inactive) and the GI50 [35] was 2.71 µM (inactive). The GI50 [36] was 9.29 µM (inactive), the GI50 [37] was 7.67 µM (inactive) and the GI50 [38] was 2.8 µM (inactive). The GI50 [39] was 2.61 µM (inactive), the GI50 [40] was 3.52 µM (inactive) and the GI50 [41] was 3.73 µM (inactive). For the same molecule, the GI50 [42] was 2.85 µM (inactive), the GI50 [43] was 6.61 µM (inactive) and the GI50 [44] was 3.87 µM (inactive). The GI50 [45] was 3.19 µM (inactive), the GI50 [46] was 2.75 µM (inactive) and the GI50 [47] was 2.2 µM (inactive). For the same molecule, the GI50 [48] was 4.04 µM (inactive), the GI50 [49] was 3.38 µM (inactive) and the GI50 [50] was 2.79 µM (inactive). The GI50 [51] was 2.88 µM (inactive), the GI50 [52] was 2.16 µM (inactive) and the GI50 [53] was 4.59 µM (inactive). For the same molecule, the GI50 [54] was 2.7 µM (inactive), the GI50 [55] was 3.04 µM (inactive) and the GI50 [56] was 2.98 µM (inactive). For the same molecule, the GI50 [57] was 2.96 µM (inactive).
